Measured values published in patent publication US20230286946A1, “DIFLUOROMETHYL-PYRIDIN-2-YL TRIAZOLES” (Boehringer Ingelheim International GmbH, priority 2020, published 2023).
Where two headings read alike, the source gives them in different places.

Columns and labels:
[1] = target: T1, human GABAA α5β3γ2s receptor (Homo sapiens, UniProt P18507+P31644); test: Assay A: in vitro inhibition of 3H-flumazenil binding, HEK cells expressing the human GABAA α5β3γ2s receptor
T1 sequence (P18507 1-475): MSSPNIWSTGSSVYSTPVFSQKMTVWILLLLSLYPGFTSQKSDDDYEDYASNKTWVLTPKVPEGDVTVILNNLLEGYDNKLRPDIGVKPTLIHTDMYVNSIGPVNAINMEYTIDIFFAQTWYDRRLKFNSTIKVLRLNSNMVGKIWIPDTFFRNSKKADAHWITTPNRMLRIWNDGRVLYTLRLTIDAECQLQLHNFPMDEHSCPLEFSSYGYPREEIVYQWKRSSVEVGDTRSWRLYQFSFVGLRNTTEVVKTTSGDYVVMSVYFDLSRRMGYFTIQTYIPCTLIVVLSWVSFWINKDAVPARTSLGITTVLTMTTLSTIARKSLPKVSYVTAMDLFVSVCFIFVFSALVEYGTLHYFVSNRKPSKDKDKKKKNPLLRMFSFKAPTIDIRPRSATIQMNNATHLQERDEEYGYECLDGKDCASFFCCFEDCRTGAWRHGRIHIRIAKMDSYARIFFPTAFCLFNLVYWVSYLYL
T1 sequence (P31644 1-462): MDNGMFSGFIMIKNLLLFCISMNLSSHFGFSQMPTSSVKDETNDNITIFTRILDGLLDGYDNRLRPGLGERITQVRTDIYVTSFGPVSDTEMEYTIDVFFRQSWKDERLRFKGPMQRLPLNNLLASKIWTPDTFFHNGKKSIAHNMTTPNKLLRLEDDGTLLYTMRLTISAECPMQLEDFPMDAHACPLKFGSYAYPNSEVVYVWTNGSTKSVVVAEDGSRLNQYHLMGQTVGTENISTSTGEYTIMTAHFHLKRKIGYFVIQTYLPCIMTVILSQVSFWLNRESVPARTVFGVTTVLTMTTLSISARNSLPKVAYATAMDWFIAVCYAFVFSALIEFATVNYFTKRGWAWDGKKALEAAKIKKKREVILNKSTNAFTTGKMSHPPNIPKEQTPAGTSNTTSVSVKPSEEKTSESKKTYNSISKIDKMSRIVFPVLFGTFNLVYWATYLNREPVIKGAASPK
Description: Cell Cultures and Membrane Preparation
HEK-293 cell lines with stable expression of recombinant human GABAA α5ß3 γ2s receptors (plasmid H46/E9/B10) are seeded in T175 polystyrene flasks or roller bottles (1700 cm^2, Fisher Scientific CCI-431191), and cultured (37° C., 5% CO2) in Dulbecco's Modified Eagle Medium (DMEM) with GlutaMAX™ supplemented with 10% fetal bovine serum and one or both of the following antibiotics: hygromycin B ([…]; γ2 subunit) or G418 (0.5 mg/ml; […]).
When the cultures reach confluency, the DMEM is removed and the cells are washed (10 ml for T175 flasks; 50 ml for roller bottles) once in Dulbecco's Phosphate Buffered Saline (DPBS). Following addition of DPBS to the cultures (10 ml for T175 flasks; 100 ml for roller bottles) for approximately 5 min cells are easily detached from the surface by shaking or tapping the flask gently. The cell suspension is transferred to Falcon tubes and centrifuged at 23,500×g for 10 min at 2° C. The pellet is washed once in 15 ml Tris-citrate buffer (50 mM, pH 7.1) using an Ultra-Turrax homogenizer and centrifuged at 2° C. for 10 min at 27,000×g. The washed pellet is re-suspended in 15 ml Tris-citrate buffer and frozen at −80° C. until the day of the binding experiment.
On the day of the experiment the cell membrane preparation is thawed and centrifuged at 2° C. for 10 min at 27,000×g. The pellet is re-suspended, using an Ultra-Turrax homogenizer in Tris-citrate buffer, to 15-50 µg protein per assay and then used for binding assays.
Non-specific binding is determined using clonazepam ([…]).
All dilutions of test compounds and incubation of assay are performed in glass vials/96-vial plates. […] Compounds are dissolved in 100% DMSO (10 mM stock), diluted in 48% ethanol-water, and tested in triplicate in serial 1:3 or 1:10 dilutions. When screening large numbers of compounds only one concentration of each compound is tested in single wells. Reference compounds are not included routinely, but for each experiment performed total and nonspecific binding is compared to data obtained during validation of the assay.
Binding is either terminated by rapid filtration onto
1) Whatman GF/C glass fibre filters using a Brandel Cell harvester, followed by 5 washes with 1 ml ice-cold buffer or onto 2) UniFilter GF/C glass fibre filter plates using a Tomtec cell harvester, followed by washing with approximately 5 ml ice-cold buffer.
The amount of radioactivity on the filters is determined by conventional liquid scintillation counting using a
1) Tri-Garb™ counter (PerkinElmer Life and Analytical Sciences) for separate large filters or
2) Topcount™ counter (PerkinElmer Life and Analytical Sciences) for 96-well filter plates.
Specific binding is total binding minus non-specific binding.
The IC50 value for a test compound is determined based on the equation: […]
where B is the binding in percentage of total specific binding; C is the concentration of test compound; and n is the Hill coefficient. For screening purposes n is set to 1. The IC50 value is calculated from the concentration response curves by the non-linear regression method using the curve-fitting program GraphPad Prism.
The Ki value for a test compound can be calculated from the IC50 value using the equation by Cheng and Prusoff: […]

α5ß2 γ2 GABAA Receptor = target: T2, α5ß2 γ2 GABAA Receptor (Homo sapiens, UniProt P18507+P31644); test: Assay B: in vitro evaluation of modulation of α5ß2γ2 GABAA receptor, two-electrode voltage clamp in oocytes; format: cell-based; details: for EC50: co-application with 0.5 μM GABA, oocytes, read-out: Assay B: GABAA α 5 β 3 γ 2 EC50
T2 sequence (P31644 32-462): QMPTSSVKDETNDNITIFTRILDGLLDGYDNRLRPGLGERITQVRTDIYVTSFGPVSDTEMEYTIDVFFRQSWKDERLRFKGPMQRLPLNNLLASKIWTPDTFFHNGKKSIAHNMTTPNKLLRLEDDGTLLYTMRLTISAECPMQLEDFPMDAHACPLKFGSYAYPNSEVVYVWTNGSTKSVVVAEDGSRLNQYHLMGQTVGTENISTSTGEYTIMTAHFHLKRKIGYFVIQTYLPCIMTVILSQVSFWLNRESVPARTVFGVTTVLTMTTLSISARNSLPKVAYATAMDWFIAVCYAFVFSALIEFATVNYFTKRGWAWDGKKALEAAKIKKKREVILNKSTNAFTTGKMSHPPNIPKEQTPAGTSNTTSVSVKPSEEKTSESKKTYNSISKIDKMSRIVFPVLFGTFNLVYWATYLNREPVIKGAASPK
T2 sequence (P18507 40-376 limits assumed): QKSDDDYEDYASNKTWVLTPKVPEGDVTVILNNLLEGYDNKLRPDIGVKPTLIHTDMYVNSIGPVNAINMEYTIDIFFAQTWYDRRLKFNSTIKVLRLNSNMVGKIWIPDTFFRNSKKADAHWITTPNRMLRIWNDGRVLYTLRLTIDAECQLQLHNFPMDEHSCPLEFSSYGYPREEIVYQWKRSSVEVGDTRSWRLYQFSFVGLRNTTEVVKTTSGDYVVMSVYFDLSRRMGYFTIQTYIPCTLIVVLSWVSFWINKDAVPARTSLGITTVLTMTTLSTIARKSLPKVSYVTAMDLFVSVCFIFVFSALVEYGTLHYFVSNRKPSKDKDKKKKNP
Description: Assay B: In Vitro Evaluation of Modulation of α5ß2 γ2 GABAA Receptor.
Modulatory efficacy of compounds of formular (I) is determined electrophysiological recordings in oocytes using the two-electrode voltage clamp (TEVC) technique. Oocytes are injected with cRNA for human GABAA receptor subunits α5, ß2 and γ2 in a 3:1:3 ratio and modulatory efficacy is evaluated by co-applications with a submaximal EC5-20 GABA concentration (0.5 μM) termed GABA control. As a standard, the compounds are tested in five concentrations (3.16, 0.316, 0.0316, 0.00316 and 0.000316 μM) on each oocyte starting with the lowest concentration. Background subtracted peak current amplitudes are normalized to the respective GABAcontrol current, converted to % change and depicted +/−S.E.M. as a function of increasing compound concentrations. Plotted datapoints are fitted to the empirical Hill equation using non-linear regression. 95% confidence intervals for maximal efficacy (Bottom) and potency (Log EC50) are derived from this fitting routine.

[2] = read-out: Assay A: GABAA α 5 β 3 γ 2s Ki
[3] = comparison compounds of WO 2020/016433, read-out: Assay A: GABAA α5 β3 γ2S Ki

Row | SMILES | Ki [1, 2] [nM] | Assay B: GABAA α 5 β 3 γ 2 Emax vs GABA (α5ß2 γ2 GABAA Receptor) [%] | EC50 (α5ß2 γ2 GABAA Receptor) [nM] | Ki [1, 3] [nM] | Ki ([1]; compounds of the present invention, read-out: Assay A: GABAA α5 β3 γ2S Ki) [nM]
1 | CCc1cn(-c2ccc(OCc3c(-c4ccc(C(F)F)cn4)nnn3C)nn2)nc1N [Example 40] | 8 | -10.3 | 32.7 |  | 
2 | Cn1nnc(-c2ccc(C(F)F)cn2)c1COc1ccc(-n2ccnc2C#N)nn1 [Example 46] | 220 | -26.3 | 10.4 |  | 
3 | Cn1nnc(-c2ccc(C(F)F)cn2)c1COc1ccc(-c2cncc(C#N)c2)nn1 [Example 27] | 12 | -6.7 |  |  | 
4 | Cc1nnn(-c2ccc(C(F)F)cn2)c1COc1ccc(-n2ccnn2)nn1 [Example 44] | 14 | -17.7 | 14.1 |  | 
5 | Cc1nnn(-c2ccc(C(F)F)cn2)c1COc1ccc(-c2cccc(C#N)n2)nn1 [Example 11] | 9 | -13.5 | 37.5 |  | 
6 | Cc1nccn1-c1ccc(OCc2c(-c3ccc(C(F)F)cn3)nnn2C)nn1 [Example 47] | 120 | -7 | 15.5 |  | 
7 | Cc1nnn(-c2ccc(C(F)F)cc2)c1COc1ccc(-c2ccn[nH]2)nn1 [reference compound] |  |  |  | 0.12 | 
8 | Cc1nnn(-c2ccc(C(F)F)cn2)c1COc1ccc(-n2cncn2)nn1 [Example 55] | 32 | -20.3 | 24.3 |  | 0.032
9 | CCn1cc(-c2ccc(OCc3c(C)nnn3-c3ccc(C(F)F)cn3)nn2)ccc1=O [Example 21] | 10 | -4 |  |  | 
10 | Cn1ccc(-c2ccc(OCc3c(-c4ccc(C(F)F)cn4)nnn3C)nn2)n1 [Example 34] | 25 | -17 | 4.2 |  | 
11 | Cc1nnn(-c2ccc(C(F)F)cn2)c1COc1ccc(-c2cncc(C#N)c2)nn1 [Example 13] | 6 | -9 | 44.5 |  | 
12 | Cc1nnn(-c2ccc(C(F)F)cn2)c1COc1ccc(-n2cc(F)cn2)nn1 [Example 54, 3-({1-[5-(difluoromethyl)pyridin-2-yl]-4-methyl-1H-1,2,3-triazol-5-yl}methoxy)-6-(4-fluoro-1H-pyrazol-1-yl)pyridazine] | 14 | -34.7 | 15 |  | 
13 | CCc1nccn1-c1ccc(OCc2c(-c3ccc(C(F)F)cn3)nnn2C)nn1 [Example 45] | 150 | -17.3 | 23 |  | 
14 | Cc1nnn(-c2ccc(C(F)F)cc2)c1COc1ccc(-n2cncn2)nn1 [reference compound] |  |  |  | 0.546 | 
15 | Cc1nnn(-c2ccc(C(F)F)cc2)c1COc1ccc(-n2cnc(C#N)c2)nn1 [reference compound] |  |  |  | 0.126 | 
16 | Cc1nnn(-c2ccc(C(F)F)cn2)c1COc1ccc(-n2cnc(C(N)=O)c2)nn1 [Example 36] | > 8890 |  |  |  | 
17 | CNc1cc(C)nn1-c1ccc(OCc2c(-c3ccc(C(F)F)cn3)nnn2C)nn1 [Example 41] | 2 | -21.3 | 43.7 |  | 
18 | Cn1nnc(-c2ccc(C(F)F)cn2)c1COc1ccc(-n2cc(Cl)cn2)nn1 [Example 51, 3-(4-chloro-1H-pyrazol-1-yl)-6-({4-[5-(difluoromethyl)pyridin-2-yl]-1-methyl-1H-1,2,3-triazol-5-yl}methoxy)pyridazine] | 15 | -27.3 | 29 |  | 
19 | CNc1cc(-c2ccc(OCc3c(-c4ccc(C(F)F)cn4)nnn3C)nn2)ccn1 [Example 26] | 14 | -5.3 |  |  | 
20 | CSc1ccc(-c2ccc(OCc3c(C)nnn3-c3ccc(C(F)F)cn3)nn2)cn1 [Example 10] | 9 | -8 | 75 |  | 
21 | Cc1nnn(-c2ccc(C(F)F)cc2)c1COc1ccc(-c2cnccn2)nn1 [reference compound] |  |  |  | 0.249 | 
